Reference: US20240026268A1, “MICROFLUIDIC HANGING DROP CULTURE DEVICE FOR CULTURING CELL AGGREGATE” (CELLARTGEN INC., priority 2021, published 2024)

How the values were obtained:
[1] = system: human iPSC-derived nonalcoholic steatohepatitis organoids; assay: ROS quantitative analysis by CM-H2DCFDA staining of NASH organoids in 100-well HD chip; assay type: cell-based; details: NASH+Eze versus NASH organoid
Method: To check the accumulation of reactive oxygen species (ROS) caused by oxidative stress in Normal, NASH and NASH+Eze human iPSC-derived liver organoids (HEMKS) fabricated in the high-throughput 100-well HD chip by the same culture method as described above, ROS activity and quantitative analysis between the groups was performed by CM-H2DCFDA staining, which is oxidative stress detection assay.
The high-throughput HD chip was designed and fabricated with the same dimensions as a commercially available conventional 384-well plate.

[2] = system: human iPSC-derived nonalcoholic steatohepatitis organoids; assay: Effective drug test on human iPSC-derived nonalcoholic steatohepatitis organoids (HEMKS) in 100-well HD chip: qPCR, immunostaining, BODIPY; assay type: cell-based; details: oleic acid 500 μM + ezetimibe 50 μM for 2 days
Method: Human iPSC-derived liver organoids (HEMKS) were fabricated in the high-throughput 100-well HD chip. Then, a normal group was cultured in a normal culture medium for 7 days, whereas a nonalcoholic steatohepatitis (NASH) group was normally cultured for 5 days and then further cultured for 2 days in the culture medium mixed with 500 μM oleic acid, a free fatty acid, to induce steatohepatitis. Ezetimibe (Eze), an effective drug for treatment of fatty liver, is a drug candidate group that serves as a cholesterol absorption inhibitor and is conventionally used to treat high blood cholesterol and lipid abnormalities. After 5 days of normal culture, oleic acid (500 μM) and ezetimibe (50 μM) were mixed in the culture medium, followed by additional culture for 2 days to test the drug for steatohepatitis. After a total of 7 days of culture, the degree of fat accumulation was compared and the maker expression and gene expression were compared between groups by immunostaining and quantitative PCR analysis. For more accurate steatohepatitis modeling and drug screening, liver organoids containing immune cells (Kupffer cells) and mesenchymal cells (hepatic stellate cells) constituting a liver tissue microenvironment were fabricated. To this end, human iPSC-derived liver organoids were fabricated at a ratio of iPSC hepatic cells (H): vascular endothelial cells (E): mesenchymal stem cells (M): iPSC-derived Kupffer cells (K): iPSC-derived hepatic stellate cells (S)=10:7:2:2:1 (HEMKS).

[3] = quantitative PCR, versus NASH group

O=C1[C@H](CC[C@H](O)c2ccc(F)cc2)[C@@H](c2ccc(O)cc2)N1c1ccc(F)cc1 [Eze, Ezetimibe]
oxidative stress caused by ROS ([1]; CM-H2DCFDA staining, imaging): decreased to a certain level or less
fluorescence intensity (ROS oxidative stress) ([1]; on-chip analysis with plate reader): decreased
expression level of ALB, a hepatic differentiation marker ([2]; immunostaining, versus NASH organoid): recovered to a certain level
fatty acid accumulation (BODIPY fluorescence signal labeling lipid) ([2]; versus NASH organoid): decreased
expression level of PLIN2, a fatty acid accumulation marker [2, 3]: decreased
expression level of SMA, liver fibrosis marker [2, 3]: decreased
expression level of TNF-α, an inflammation marker [2, 3]: decreased
expression level of VIM, liver fibrosis marker [2, 3]: decreased
